Results reported in ChEMBL document CHEMBL4316582, “Nitro-Group-Containing Drugs” (J Med Chem, 2019).

How the values were obtained:
HT-29 [1] = assay: Cytotoxicity against human HT-29 cells assessed as reduction in cell viability after 2 hrs in presence of PF477736 by Alamar blue assay; assay type: functional, cell-based; details: HT-29, 2 h
HT-29 [2] = assay: Cytotoxicity against human HT-29 cells assessed as reduction in cell viability after 2 hrs in presence of LY2603618 by Alamar blue assay; assay type: functional, cell-based; details: HT-29, 2 h
HeLa [3] = assay: Cytotoxicity against human HeLa cells assessed as reduction in cell viability after 2 hrs in presence of AZD7765 by Alamar blue assay; assay type: functional, cell-based
HT-29 [4] = assay: Cytotoxicity against human HT-29 cells assessed as reduction in cell viability after 2 hrs in presence of AZD7765 by Alamar blue assay; assay type: functional, cell-based; details: HT-29, 2 h
DU-145 = assay: Cytotoxicity against human DU145 cells assessed as reduction in cell viability after 2 hrs in presence of AZD7765 by Alamar blue assay; assay type: functional, cell-based; details: DU-145, 2 h
NCI-H460 [5] = assay: Cytotoxicity against human NCI-H460 cells assessed as reduction in cell viability after 2 hrs in presence of PF477736 by Alamar blue assay; assay type: functional, cell-based; details: NCI-H460, 2 h
NCI-H460 [6] = assay: Cytotoxicity against human NCI-H460 cells assessed as reduction in cell viability after 2 hrs in presence of LY2603618 by Alamar blue assay; assay type: functional, cell-based; details: NCI-H460, 2 h
NCI-H460 [7] = assay: Cytotoxicity against human NCI-H460 cells assessed as reduction in cell viability after 2 hrs in presence of AZD7765 by Alamar blue assay; assay type: functional, cell-based; details: NCI-H460, 2 h
HeLa [8] = assay: Cytotoxicity against human HeLa cells assessed as reduction in cell viability after 2 hrs in presence of LY2603618 by Alamar blue assay; assay type: functional, cell-based
NCI-H460 [9] = assay: Cytotoxicity against human NCI-H460 cells assessed as reduction in cell viability after 2 hrs under normoxic conditions by Alamar blue assay; assay type: functional, cell-based; details: NCI-H460, 2 h
[10] = Tmax in mouse at 10 mg/kg; assay type: ADME, organism-based; details: in vivo
NCI-H460 [11] = assay: Cytotoxicity against human NCI-H460 cells assessed as reduction in cell viability after 2 hrs under hypoxic conditions by Alamar blue assay; assay type: functional, cell-based; details: NCI-H460, 2 h
[12] = Cmax in mouse at 10 mg/kg; assay type: ADME, organism-based; parameters: dose 10 mg/kg; details: in vivo
[13] = Half life in mouse at 10 mg/kg; assay type: ADME, organism-based; details: in vivo
[14] = Clearance in mouse at 10 mg/kg; assay type: ADME, organism-based; details: in vivo

Row | Compound | IC50 (HT-29 [1]) | IC50 (HT-29 [2]) | IC50 (HeLa [3]) | IC50 (HT-29 [4]) | IC50 (DU-145) | IC50 (NCI-H460 [5]) | IC50 (NCI-H460 [6]) | IC50 (NCI-H460 [7]) | IC50 (HeLa [8]) | IC50 (NCI-H460 [9]) | Tmax [10] | IC50 (NCI-H460 [11]) | Cmax [12] | half-life [13] | clearance [14]
1 | Cn1c(COP(=O)(NCCCl)NCCCl)cnc1[N+](=O)[O-] | 57 mM | 46 mM | 95 mM | 39 mM | 80 mM | 19 mM | 22 mM | 25 mM | 90 mM | – | – | – | – | – | –
2 | COc1cccc2c1C(=O)c1c(O)c3c(c(O)c1C2=O)C[C@@](O)(C(C)=O)C[C@@H]3O[C@H]1C[C@H](NCOCCn2ccnc2[N+](=O)[O-])[C@H](O)[C@H](C)O1 | – | – | – | – | – | – | – | – | – | 0.0098 mM | 5 min | 0.023 µM | 1.82 µg/mL | 28.8 min | 11.3 L/h/kg
